The results in this text go back to PubChem BioAssay AID330 (DTP/NCI, 2004).

Molecules are shown by their SMILES. Values joined by “and” are separate entries in the source; they are usually repeats but may differ in a detail not shown here. Identical values can stand only once. Inconclusive results and toxic doses are left out.

For the assay, the system named is P388 leukemia ip, CD2F1 mice, survival T/C. Kind of assay: NCI In Vivo Anticancer Drug Screen. Data for tumor model P388 Leukemia (intraperitoneal) in CD2F1 (CDF1) mice. Particulars: endpoint: median survival time, higher = longer survival. A digest of the protocol: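 Mice carrying the transplanted tumor received test compound or vehicle. Survival was recorded in each group, and the value is the treated-group measurement divided by that of the vehicle-treated control group.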

Where [1] appears, read: dose: 50.0 mg/kg/injection, schedule: Q01DX005 (ip), vehicle: Klucel (hydroxypropylcellulose) (HPC).
The mark [2] stands for this setting: dose: 100.0 mg/kg/injection, schedule: Q01DX005 (ip), vehicle: Klucel (hydroxypropylcellulose) (HPC).
The mark [3] stands for this setting: dose: 200.0 mg/kg/injection, schedule: Q01DX005 (ip), vehicle: Klucel (hydroxypropylcellulose) (HPC).
Where [4] appears, read: dose: 50.0 mg/kg/injection, schedule: Q01DX009 (ip), vehicle: saline with Tween-80.
Setting [5] is: dose: 100.0 mg/kg/injection, schedule: Q01DX009 (ip), vehicle: saline with Tween-80.
[6] abbreviates: dose: 200.0 mg/kg/injection, schedule: Q01DX009 (ip), vehicle: saline with Tween-80.
[7] abbreviates: dose: 50.0 mg/kg/injection, schedule: Q01DX009 (ip), vehicle: Klucel (hydroxypropylcellulose) (HPC).
The mark [8] stands for this setting: dose: 100.0 mg/kg/injection, schedule: Q01DX009 (ip), vehicle: Klucel (hydroxypropylcellulose) (HPC).
Setting [9] is: dose: 200.0 mg/kg/injection, schedule: Q01DX009 (ip), vehicle: Klucel (hydroxypropylcellulose) (HPC).

For `COc1ccc(-c2csc(C)n2)cc1OC`, the T/C is, setting by setting: (dose: 100.0 mg/kg/injection, schedule: Q04DX003 (ip), vehicle: Klucel (hydroxypropylcellulose) (HPC)) 106 % of control; (dose: 200.0 mg/kg/injection, schedule: Q04DX003 (ip), vehicle: Klucel (hydroxypropylcellulose) (HPC)) 106 % of control; (dose: 400.0 mg/kg/injection, schedule: Q04DX003 (ip), vehicle: Klucel (hydroxypropylcellulose) (HPC)) 103 % of control.
For `CCOC(=O)C(=NNc1cc(OC)c(Cl)cc1OC)C(=O)OCC`, the T/C is 94 % of control under setting [1], 94 % of control under setting [2] and 94 % of control under setting [3].
As for `Cc1ccccc1N1C(=O)CC2(CCCC2)C1=O`, the T/C reads like this: under setting [4], 97 % of control; under setting [5], 113 % of control; under setting [6], 94 % of control.
`Clc1ccc(-c2n[nH]c3c2Cc2ccccc2-3)cc1Cl`: the T/C runs as follows: under setting [1], 97 % of control; under setting [2], 91 % of control; under setting [3], 98 % of control.
For `O=C(Nc1ccc(Br)cc1C(F)(F)F)O/N=C(\c1ccccc1)C(O)c1ccccc1` (stereo not given), the T/C under setting [4] was 101 % of control, the T/C under setting [5] is 96 % of control and the T/C under setting [6] was 100 % of control.
Regarding `COC(=O)C1C(CO)ON2CCC(OC)(OC)C12` (stereo not given), the T/C reads like this: (dose: 50.0 mg/kg/injection, schedule: Q01DX005 (ip), vehicle: saline) 99 % of control; (dose: 100.0 mg/kg/injection, schedule: Q01DX005 (ip), vehicle: saline) 92 % of control; (dose: 200.0 mg/kg/injection, schedule: Q01DX005 (ip), vehicle: saline) 96 % of control.
In the case of `CC(c1ccc2c(c1)CCC1C2C2OC2C2(O)CC=CC(=O)C12C)C1CC2(C)OC2(C)C(O)O1` (stereo not given), the T/C runs as follows: (dose: 3.0 mg/kg/injection, schedule: Q01DX009 (ip), vehicle: saline with Tween-80) 113 % of control; (dose: 6.0 mg/kg/injection, schedule: Q01DX009 (ip), vehicle: saline with Tween-80) 100 % of control; (dose: 12.0 mg/kg/injection, schedule: Q01DX009 (ip), vehicle: saline with Tween-80) 109 % of control; (dose: 24.0 mg/kg/injection, schedule: Q01DX009 (ip), vehicle: saline with Tween-80) 107 % of control; (dose: 48.0 mg/kg/injection, schedule: Q01DX009 (ip), vehicle: saline with Tween-80) 102 % of control.
For the compound `Cc1cc(C)c([N+](=O)[O-])c([N+](=O)[O-])c1C`, the T/C was 101 % of control under setting [4], 106 % of control under setting [5] and 102 % of control under setting [6].
Turning to `O=C(C=C(C(F)(F)F)C(F)(F)F)c1c2ccccc2cc2ccccc12`, the T/C by setting is: (dose: 0.78 mg/kg/injection, schedule: Q01DX009 (ip), vehicle: DMSO) 91 % of control; (dose: 1.56 mg/kg/injection, schedule: Q01DX009 (ip), vehicle: DMSO) 98 % of control; (dose: 3.12 mg/kg/injection, schedule: Q01DX009 (ip), vehicle: DMSO) 87 % of control and 89 % of control.
As for `COc1ccc2c(O)c3[n+](cc2c1OC)CCc1cc2c(cc1-3)OCO2`, the T/C is 99 % of control (dose: 60.0 mg/kg/injection, schedule: Q01DX005 (ip), vehicle: saline with Tween-80); 104 % of control (dose: 120.0 mg/kg/injection, schedule: Q01DX005 (ip), vehicle: saline with Tween-80); 101 % of control (dose: 240.0 mg/kg/injection, schedule: Q01DX005 (ip), vehicle: saline with Tween-80).
On to `CCCCCCCCCCCC(O)CCCCC` (stereo not given), for which the T/C was 100 % of control (dose: 100.0 mg/kg/injection, schedule: Q04DX003 (ip), vehicle: other); 100 % of control (dose: 200.0 mg/kg/injection, schedule: Q04DX003 (ip), vehicle: other); 100 % of control (dose: 400.0 mg/kg/injection, schedule: Q04DX003 (ip), vehicle: other).
For `COC(=O)Nc1nc2ccc(C3(c4ccc(F)cc4)OCCO3)cc2[nH]1`, the T/C reads like this: (dose: 25.0 mg/kg/injection, schedule: Q01DX009 (oral), vehicle: saline) 103 % of control; (dose: 50.0 mg/kg/injection, schedule: Q01DX009 (oral), vehicle: saline) 119 % of control; (dose: 50.0 mg/kg/injection, schedule: Q04DX003 (ip), vehicle: saline) 168 % of control; (dose: 60.0 mg/kg/injection, schedule: Q04DX003 (ip), vehicle: saline) 155 % of control and 192 % of control; (dose: 70.0 mg/kg/injection, schedule: Q04DX003 (ip), vehicle: saline) 208 % of control.
Consider `Clc1ccc(N=Cc2cccs2)cc1Cl`, for which the T/C is 110 % of control under setting [7], 107 % of control under setting [8] and 110 % of control under setting [9].
`CN(C)C1CCc2ccccc2C1OC(=O)/C=C/c1ccccc1` (stereo not given): the T/C reads like this: (dose: 12.5 mg/kg/injection, schedule: Q01DX009 (ip), vehicle: saline with Tween-80) 101 % of control; (dose: 25.0 mg/kg/injection, schedule: Q01DX009 (ip), vehicle: saline with Tween-80) 106 % of control; under setting [4], 111 % of control; under setting [5], 111 % of control.
With `O=C(O)c1ccccc1N1C(=O)CC2(CCCC2)C1=O`, the T/C under setting [7] was 101 % of control, the T/C under setting [8] was 98 % of control and the T/C under setting [9] is 94 % of control.
In the case of `CC(=O)OC1C=CC(=O)C1(O)CO` (stereo not given), the T/C was 97 % of control (dose: 2.0 mg/kg/injection, schedule: Q01DX009 (ip), vehicle: saline); 98 % of control (dose: 4.0 mg/kg/injection, schedule: Q01DX009 (ip), vehicle: saline); 118 % of control (dose: 8.0 mg/kg/injection, schedule: Q01DX009 (ip), vehicle: saline); 116 % of control (dose: 16.0 mg/kg/injection, schedule: Q01DX009 (ip), vehicle: saline).
With `COc1ccc(/C=N\NC(=O)C(=O)N/N=C\c2ccc(OC)cc2)cc1`, the T/C reads like this: (dose: 12.5 mg/kg/injection, schedule: Q01DX009 (ip), vehicle: distilled water + alcohol) 103 % of control; (dose: 25.0 mg/kg/injection, schedule: Q01DX009 (ip), vehicle: distilled water + alcohol) 100 % of control; (dose: 50.0 mg/kg/injection, schedule: Q01DX009 (ip), vehicle: distilled water + alcohol) 94 % of control; (dose: 100.0 mg/kg/injection, schedule: Q01DX009 (ip), vehicle: distilled water + alcohol) 89 % of control; (dose: 200.0 mg/kg/injection, schedule: Q01DX009 (ip), vehicle: distilled water + alcohol) 108 % of control.
On to `CC(=O)c1ccccc1N=Nc1ccc(N(CCCl)CCCl)cc1`, for which the T/C was 108 % of control under setting [4], 106 % of control under setting [5] and 112 % of control under setting [6].
`C/C(=C\c1ccc(Cl)cc1)C(=O)N1CCN(c2ccccc2)CC1`: the T/C runs as follows: under setting [1], 105 % of control; under setting [2], 91 % of control; under setting [3], 96 % of control.
With `Cc1ccccc1C1OC(N)=C(O)C1=O` (stereo not given), the T/C by setting is: (dose: 60.0 mg/kg/injection, schedule: Q01DX005 (ip), vehicle: Klucel (hydroxypropylcellulose) (HPC)) 93 % of control; (dose: 120.0 mg/kg/injection, schedule: Q01DX005 (ip), vehicle: Klucel (hydroxypropylcellulose) (HPC)) 93 % of control; (dose: 240.0 mg/kg/injection, schedule: Q01DX005 (ip), vehicle: Klucel (hydroxypropylcellulose) (HPC)) 90 % of control.
As to `CC1CCCCN1C(=O)C(c1ccccc1)(c1ccccc1)c1ccccc1` (stereo not given), the T/C runs as follows: under setting [1], 99 % of control; under setting [2], 99 % of control; under setting [3], 93 % of control.
As for `O=C1NC2(c3ccccc3)NC(=O)NC2(c2ccccc2)N1` (stereo not given), the T/C was 99 % of control (dose: 50.0 mg/kg/injection, schedule: Q01DX009 (ip), vehicle: saline); 93 % of control (dose: 100.0 mg/kg/injection, schedule: Q01DX009 (ip), vehicle: saline); 100 % of control (dose: 100.0 mg/kg/injection, schedule: Q04DX003 (ip), vehicle: saline with Tween-80); 94 % of control (dose: 100.0 mg/kg/injection, schedule: Q04DX003 (ip), vehicle: saline); 96 % of control (dose: 200.0 mg/kg/injection, schedule: Q01DX009 (ip), vehicle: saline); 100 % of control (dose: 200.0 mg/kg/injection, schedule: Q04DX003 (ip), vehicle: saline with Tween-80). Moreover, the T/C (dose: 200.0 mg/kg/injection, schedule: Q04DX003 (ip), vehicle: saline) was 94 % of control; the T/C (dose: 400.0 mg/kg/injection, schedule: Q04DX003 (ip), vehicle: saline with Tween-80) is 86 % of control; the T/C (dose: 400.0 mg/kg/injection, schedule: Q04DX003 (ip), vehicle: saline) is 92 % of control.
